According to US7893288B2, “Poly-halogenated triazapentadiene compositions” (Board of Regents, The University of Texas System, priority 2007, dated 2011):
“And” between values parts separate entries of the source, which are not always exact repeats. Equal entries are not always repeated.

What was measured:
Assay type in all cases: cell-based
[1] = tested on: Staphylococcus aureus (ATCC 25923); experiment: Disk sensitivity test (modified Kirby-Bauer), S. aureus;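 also: Compound-loaded filter disks on LB agar plates seeded with a confluent bacterial lawn, compound dissolved in DMSO, plates kept overnight at 37 °C, then inhibition zone around disk measured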
[2] = tested on: Bacillus subtilis W168; experiment: Disk sensitivity test (modified Kirby-Bauer), B. subtilis;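 also: Compound-loaded filter disks on LB agar plates seeded with a bacterial lawn, plates held overnight at 37 °C, then the clear zone around each disk measured, compounds in DMSO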
Procedure: (§1) Filter disks were provided as sterile filter paper (about 6 mm in diameter) and spotted with 20 μL of a selected compound. Each compound was initially dissolved in dimethylsulfoxide (DMSO); any subsequent dilutions were also made in DMSO. Each filter was placed on an LB agar plate spread with 100 μL of a bacterial culture that had been grown overnight in suitable LB broth. Plates were incubated overnight at 37° C., after which, the extent of growth inhibition around each filter disk was measured. Bacterial strains included Staphylococcus aureus (ATCC 25923), Pseudomonas aeruginosa PAO1, Bacillus subtilis W168 and Escherichia coli HB101. […] The latter two strains are non-pathogenic Gram-positive and Gram-negative bacterial strains, respectively.

[3] = tested on: Pseudomonas aeruginosa PAO1; experiment: Disk sensitivity test (modified Kirby-Bauer), P. aeruginosa;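 also: Compound-loaded filter disks on LB agar lawns, DMSO as solvent, zone of inhibition around each disk read after overnight incubation at 37 °C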
Procedure: as §1

[4] = tested on: Escherichia coli HB101; experiment: Disk sensitivity test (modified Kirby-Bauer), E. coli;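 also: filter disk loaded with compound in DMSO laid on an LB agar bacterial lawn, kept overnight at 37 °C, then the inhibition zone around the disk is measured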
[5] = tested on: Staphylococcus aureus (ATCC 25923); experiment: Minimum inhibitory concentration in LB broth, S. aureus; conditions: for Relative to AgNO3: efficacy per mole from MIC values
[6] = tested on: Bacillus subtilis W168; experiment: Minimum inhibitory concentration in LB broth, B. subtilis; conditions: for Relative to AgNO3: efficacy per mole from MIC values
[7] = tested on: Pseudomonas aeruginosa PAO1; experiment: Minimum inhibitory concentration in LB broth, P. aeruginosa; conditions: for Relative to AgNO3: efficacy per mole from MIC values
[8] = tested on: Escherichia coli HB101; experiment: Minimum inhibitory concentration in LB broth, E. coli; conditions: for Relative to AgNO3: efficacy per mole from MIC values;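 as to all read-outs here: broth dilution MIC, test compounds first taken up in DMSO, then serially diluted in LB medium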
[9] = tested on: Gram positive and Gram negative bacteria; experiment: Antimicrobial activity, summary of TABLES 16-18
Procedure: The new class of fluorinated triazapentadiene compounds with and without metal complexation as described herein were analyzed for antibacterial activity against several bacterial strains (both Gram positive and Gram negative). Methods for antimicrobial analysis included a modified Kirby-Bauer method and a determination of their minimum inhibitory concentrations. In brief, the modified Kirby-Bauer method relied on placement of a filter disk impregnated with a desired compound on a solid growth medium. Bacteria were grown to a confluent lawn and the extent of growth inhibition was measured (e.g., as an extent/percentage of a clear zone on the disk and/or solid medium).
For MIC assessment, compounds were initially dissolved in DMSO and serial dilutions of soluble compounds were made in LB broth.

| Compound | Diameter of the zone of growth inhibition ([1]; 5.7 × 10^0 mM) | Diameter of the zone of growth inhibition ([1]; 5.7 × 10^1 mM) | Diameter of the zone of growth inhibition ([1]; 5.7 × 10^−1 mM) | Diameter of the zone of growth inhibition ([1]; 5.7 × 10^−2 mM) | Diameter of the zone of growth inhibition ([1]; 5.7 × 10^−3 mM) | Diameter of the zone of growth inhibition ([1]; 5.7 × 10^−4 mM) | Diameter of the zone of growth inhibition ([1]; 5.7 × 10^−5 mM) | Diameter of the zone of growth inhibition ([1]; 5.7 × 10^−6 mM) | Diameter of the zone of growth inhibition ([1]; 5.7 × 10^−7 mM) | Diameter of the zone of growth inhibition ([2]; 5.7 × 10^0 mM) | Diameter of the zone of growth inhibition ([2]; 5.7 × 10^1 mM) | Diameter of the zone of growth inhibition ([2]; 5.7 × 10^−1 mM) | Diameter of the zone of growth inhibition ([2]; 5.7 × 10^−2 mM) | Diameter of the zone of growth inhibition ([2]; 5.7 × 10^−3 mM) | Diameter of the zone of growth inhibition ([2]; 5.7 × 10^−4 mM) | Diameter of the zone of growth inhibition ([2]; 5.7 × 10^−5 mM) | Diameter of the zone of growth inhibition ([2]; 5.7 × 10^−6 mM) | Diameter of the zone of growth inhibition ([2]; 5.7 × 10^−7 mM) | Diameter of the zone of growth inhibition ([3]; 5.7 × 10^0 mM) | Diameter of the zone of growth inhibition ([3]; 5.7 × 10^1 mM) | also measured |
| --- | --- | --- | --- | --- | --- | --- | --- | --- | --- | --- | --- | --- | --- | --- | --- | --- | --- | --- | --- | --- | --- |
| Fc1c(F)c(F)c(N=C(N=C(Nc2c(F)c(F)c(F)c(F)c2F)C(F)(F)C(F)(F)C(F)(F)F)C(F)(F)C(F)(F)C(F)(F)F)c(F)c1F [[N{(C3F7)C(C6F5)N}2]H] | 37.5 mm | 75.0 mm | 40.0 mm | 19.0 mm | 9.0 mm | 6.0 (NZ) mm | 6.0 (NZ) mm | 6.0 (NZ) mm | 6.0 (NZ) mm | 39.0 mm | 71.0 mm | 47.0 mm | 22.0 mm | 10.0 mm | 8.0 mm | 6.0 (NZ) mm | 6.0 (NZ) mm | 6.0 (NZ) mm | 8.0 mm | 9.0 mm | Diameter of the zone of growth inhibition ([3]; 5.7 × 10^−1 mM): 8.0 mm; Diameter of the zone of growth inhibition ([3]; 5.7 × 10^−2 mM): 8.0 mm; Diameter of the zone of growth inhibition ([3]; 5.7 × 10^−3 mM): 7.0 mm; Diameter of the zone of growth inhibition ([4]; 5.7 × 10^0 mM): 9.0 mm; Diameter of the zone of growth inhibition ([4]; 5.7 × 10^1 mM): 9.5 mm; Diameter of the zone of growth inhibition ([4]; 5.7 × 10^−1 mM): 9.0 mm; Diameter of the zone of growth inhibition ([4]; 5.7 × 10^−2 mM): 8.5 mm; Diameter of the zone of growth inhibition ([4]; 5.7 × 10^−3 mM): 7.0 mm; MIC [5]: 1.57 μg/ml and 2.12 × 10^−3 mM; Relative to AgNO3 [5]: 34.71; MIC [6]: 1.57 μg/ml and 2.12 × 10^−3 mM; Relative to AgNO3 [6]: 69.34; MIC [7]: 2643.48 μg/ml and 3.58 mM; Relative to AgNO3 [7]: 5.14 × 10^−3; MIC [8]: 2643.48 μg/ml and 3.58 mM; Relative to AgNO3 [8]: 1.65 × 10^−2; antimicrobial activity (in words) [9]: Effective |
| FC(F)(F)C(F)(F)C(F)(F)C(=Nc1c(Cl)cccc1Cl)N=C(Nc1c(Cl)cccc1Cl)C(F)(F)C(F)(F)C(F)(F)F [[N{(C3F7)C(2,6-Cl2C6H3)N}2]H] | 20.0 mm | 13.0 mm | 16.0 mm | 15.0 mm | 7.0 mm | 7.0 mm | 8.0 mm | 6.0 (NZ) mm | 6.0 (NZ) mm | 19.0 mm | 21.0 mm | 18.5 mm | 19.0 mm | 13.0 mm | 8.5 mm | 7.0 mm | 7.5 mm | 6.0 (NZ) mm | 8.0 mm | 9.0 mm | Diameter of the zone of growth inhibition ([3]; 5.7 × 10^−1 mM): 8.0 mm; Diameter of the zone of growth inhibition ([3]; 5.7 × 10^−2 mM): 8.0 mm; Diameter of the zone of growth inhibition ([3]; 5.7 × 10^−3 mM): 7.0 mm; Diameter of the zone of growth inhibition ([4]; 5.7 × 10^0 mM): 8.0 mm; Diameter of the zone of growth inhibition ([4]; 5.7 × 10^1 mM): 9.0 mm; Diameter of the zone of growth inhibition ([4]; 5.7 × 10^−1 mM): 8.0 mm; Diameter of the zone of growth inhibition ([4]; 5.7 × 10^−2 mM): 8.0 mm; Diameter of the zone of growth inhibition ([4]; 5.7 × 10^−3 mM): 6.0 (NZ) mm; MIC [5]: 7.80 μg/ml and 2.12 × 10^−3 mM; Relative to AgNO3 [5]: 6.57; MIC [6]: 4.27 × 10^−1 μg/ml and 4.59 × 10^−4 mM; Relative to AgNO3 [6]: 320.26; MIC [7]: >16671.80 μg/ml and >23.92 mM; Relative to AgNO3 [7]: <7.69 × 10^−4; MIC [8]: >16671.80 μg/ml and >23.92 mM; Relative to AgNO3 [8]: <2.46 × 10^−3; antimicrobial activity (in words) [9]: Effective |
